Measured values as given in PubChem BioAssay (NCI).
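48-hour exposure; five concentrations; linearly interpolated endpoints. GI50 marks 50% less growth. TGI is the concentration that stops growth completely.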

Experiments:
Assay in all cases: NCI anticancer screen, dose series, 48 h
SF-268 CNS = tested on: SF-268 CNS
A549 NSCLC = tested on: A549 NSCLC
DU-145 prostate = tested on: DU-145 prostate
A498 renal = tested on: A498 renal
HCT-116 colon = tested on: HCT-116 colon
MOLT-4 leukemia = tested on: MOLT-4 leukemia
HCC-2998 colon = tested on: HCC-2998 colon
NCI-H23 lung = tested on: NCI-H23 lung
HS 578T breast = tested on: HS 578T breast
UACC-257 melanoma = tested on: UACC-257 melanoma

O=C1CSC(c2ccccc2Cl)N1c1nnc(Cn2cnnc2)o1 (configuration not stated)
GI50 (SF-268 CNS): 13.9 µM | TGI (SF-268 CNS): 93.7 µM | GI50 (A549 NSCLC): 18 µM | TGI (A549 NSCLC): > 100 µM | GI50 (DU-145 prostate): 19.7 µM | TGI (DU-145 prostate): 44.3 µM | GI50 (A498 renal): 12.3 µM | TGI (A498 renal): 52.7 µM | GI50 (HCT-116 colon): 4.09 µM | TGI (HCT-116 colon): 18.4 µM | GI50 (MOLT-4 leukemia): 7.27 µM | TGI (MOLT-4 leukemia): 26.1 µM | GI50 (HCC-2998 colon): 12.3 µM | TGI (HCC-2998 colon): 27.2 µM | GI50 (NCI-H23 lung): 16.4 µM | TGI (NCI-H23 lung): > 100 µM | GI50 (HS 578T breast): 8.62 µM | TGI (HS 578T breast): 60.9 µM

c1ccc(OCCC[P+](c2ccccc2)(c2ccccc2)c2ccccc2)cc1
GI50 (SF-268 CNS): 3.82 µM | TGI (SF-268 CNS): 19.2 µM | GI50 (A549 NSCLC): 2.36 µM | TGI (A549 NSCLC): 20.3 µM | GI50 (DU-145 prostate): 3.19 µM | TGI (DU-145 prostate): 19.6 µM | GI50 (A498 renal): 1.94 µM | TGI (A498 renal): 7.97 µM | GI50 (HCT-116 colon): 1.42 µM | TGI (HCT-116 colon): 13.4 µM | GI50 (MOLT-4 leukemia): 3.12 µM | TGI (MOLT-4 leukemia): 13.7 µM | GI50 (NCI-H23 lung): 1.81 µM | TGI (NCI-H23 lung): 10.9 µM | GI50 (HS 578T breast): 2.69 µM | TGI (HS 578T breast): 28.4 µM | GI50 (UACC-257 melanoma): 0.381 µM | TGI (UACC-257 melanoma): 5.71 µM

CCC[CH2][Sn]([CH2]CCC)([S]C#N)[S]C#N
GI50 (SF-268 CNS): 0.802 µM | TGI (SF-268 CNS): 2.26 µM | GI50 (A549 NSCLC): 3.78 µM | TGI (A549 NSCLC): 11.9 µM | GI50 (HCT-116 colon): 1.45 µM | TGI (HCT-116 colon): 3.11 µM | GI50 (MOLT-4 leukemia): 0.462 µM | TGI (MOLT-4 leukemia): 3.23 µM | GI50 (HCC-2998 colon): 1.15 µM | TGI (HCC-2998 colon): 2.39 µM | GI50 (NCI-H23 lung): 0.609 µM | TGI (NCI-H23 lung): 2.14 µM | GI50 (UACC-257 melanoma): 0.965 µM | TGI (UACC-257 melanoma): 2.4 µM

[N-]=[N+]=NCCCn1c2c(c3ccc([N+](=O)[O-])cc3c1=O)C(=O)c1cc(Br)ccc1-2
GI50 (SF-268 CNS): > 100 µM | TGI (SF-268 CNS): > 100 µM | GI50 (A549 NSCLC): > 100 µM | TGI (A549 NSCLC): > 100 µM | GI50 (DU-145 prostate): 14.9 µM | TGI (DU-145 prostate): > 100 µM | GI50 (HCT-116 colon): 3.01 µM | TGI (HCT-116 colon): > 100 µM | GI50 (MOLT-4 leukemia): 1.15 µM | TGI (MOLT-4 leukemia): > 100 µM | GI50 (HCC-2998 colon): > 100 µM | TGI (HCC-2998 colon): > 100 µM | GI50 (NCI-H23 lung): > 100 µM | TGI (NCI-H23 lung): > 100 µM | GI50 (HS 578T breast): > 100 µM | TGI (HS 578T breast): > 100 µM | GI50 (UACC-257 melanoma): > 100 µM | TGI (UACC-257 melanoma): > 100 µM

CC(C)c1cc(C(C)C)c(S(=O)(=O)N=[N+]=[N-])c(C(C)C)c1
TGI (SF-268 CNS): > 100 µM | TGI (A549 NSCLC): > 100 µM | TGI (HCT-116 colon): > 100 µM | TGI (MOLT-4 leukemia): > 100 µM | TGI (HCC-2998 colon): > 100 µM | TGI (NCI-H23 lung): > 100 µM | TGI (UACC-257 melanoma): > 100 µM

Cc1ccc(C)c(N2C(=O)C(=O)C(c3nc4ccccc4o3)C(=O)C2=O)c1
TGI (SF-268 CNS): > 100 µM | TGI (A549 NSCLC): > 100 µM | TGI (A498 renal): > 100 µM | TGI (HCT-116 colon): 90.5 µM | TGI (MOLT-4 leukemia): > 100 µM | TGI (HCC-2998 colon): > 100 µM | TGI (NCI-H23 lung): > 100 µM | TGI (UACC-257 melanoma): > 100 µM

O=C(O)/C(Cc1cn[nH]n1)=N\O
TGI (SF-268 CNS): > 100 µM | TGI (A549 NSCLC): > 100 µM | TGI (DU-145 prostate): > 100 µM | TGI (A498 renal): > 100 µM | TGI (HCT-116 colon): > 100 µM | TGI (MOLT-4 leukemia): > 100 µM | TGI (NCI-H23 lung): > 100 µM | TGI (HS 578T breast): > 100 µM | TGI (UACC-257 melanoma): > 100 µM

CC1=C(SC#N)S(=O)(=O)N(c2ccccc2)C(C)=C1SC#N
TGI (SF-268 CNS): > 100 µM | TGI (A549 NSCLC): > 100 µM | TGI (A498 renal): 92.1 µM | TGI (HCT-116 colon): 69.8 µM | TGI (MOLT-4 leukemia): 57.8 µM | TGI (HCC-2998 colon): > 100 µM | TGI (NCI-H23 lung): > 100 µM | TGI (UACC-257 melanoma): > 100 µM

O=C(C(=O)n1ncc(Cl)c(Cl)c1=O)n1ncc(Cl)c(Cl)c1=O
TGI (SF-268 CNS): > 100 µM | TGI (A549 NSCLC): > 100 µM | TGI (A498 renal): > 100 µM | TGI (HCT-116 colon): 29.5 µM | TGI (MOLT-4 leukemia): 43.7 µM | TGI (HCC-2998 colon): 46.9 µM | TGI (NCI-H23 lung): 41.5 µM | TGI (UACC-257 melanoma): 35.7 µM

COC(=O)c1c(-c2cccs2)oc(-c2cccs2)c1C(=O)OC
GI50 (SF-268 CNS): 42 µM | TGI (SF-268 CNS): > 100 µM | GI50 (A549 NSCLC): 39.1 µM | TGI (A549 NSCLC): > 100 µM | GI50 (DU-145 prostate): > 100 µM | TGI (DU-145 prostate): > 100 µM | GI50 (A498 renal): 31.8 µM | TGI (A498 renal): 94.4 µM | GI50 (HCT-116 colon): 30.3 µM | TGI (HCT-116 colon): > 100 µM | GI50 (HCC-2998 colon): 36.2 µM | TGI (HCC-2998 colon): > 82.8 µM | GI50 (NCI-H23 lung): 29.6 µM | TGI (NCI-H23 lung): 97.7 µM | GI50 (HS 578T breast): 35.8 µM | TGI (HS 578T breast): > 100 µM | GI50 (UACC-257 melanoma): 40.3 µM | TGI (UACC-257 melanoma): > 95.3 µM

O=C(O)/C(Cc1ccnc2ccccc12)=N\O
TGI (SF-268 CNS): > 100 µM | TGI (A549 NSCLC): > 100 µM | TGI (DU-145 prostate): > 100 µM | TGI (A498 renal): > 100 µM | TGI (HCT-116 colon): > 100 µM | TGI (MOLT-4 leukemia): > 100 µM | TGI (NCI-H23 lung): > 100 µM | TGI (HS 578T breast): > 100 µM | TGI (UACC-257 melanoma): > 100 µM

COc1ccc2nc(C(=O)c3ccccc3)c(C)cc2c1
TGI (SF-268 CNS): 56.3 µM | TGI (A549 NSCLC): > 70 µM | TGI (A498 renal): 10.3 µM | TGI (HCT-116 colon): > 40.7 µM | TGI (MOLT-4 leukemia): > 100 µM | TGI (HCC-2998 colon): 26.3 µM | TGI (NCI-H23 lung): 11.1 µM | TGI (UACC-257 melanoma): 26.4 µM

COc1ccccc1NC(=O)C1=C(C)NC(C)=C(C(=O)Nc2ccccc2OC)C1/C=C/c1ccccc1
TGI (SF-268 CNS): > 100 µM | TGI (A549 NSCLC): > 100 µM | TGI (A498 renal): > 100 µM | TGI (HCT-116 colon): > 100 µM | TGI (MOLT-4 leukemia): > 100 µM | TGI (HCC-2998 colon): > 100 µM | TGI (NCI-H23 lung): > 100 µM | TGI (UACC-257 melanoma): > 100 µM

CCCCCCCCCCCCC(O)c1ccco1 (configuration not stated)
GI50 (SF-268 CNS): 19.1 µM | TGI (SF-268 CNS): 46 µM | GI50 (A549 NSCLC): 25.5 µM | TGI (A549 NSCLC): 48.1 µM | GI50 (DU-145 prostate): 19.3 µM | TGI (DU-145 prostate): 35.1 µM | GI50 (HCT-116 colon): 22.2 µM | TGI (HCT-116 colon): 52.1 µM | GI50 (MOLT-4 leukemia): 25.4 µM | TGI (MOLT-4 leukemia): 52 µM | GI50 (HCC-2998 colon): 18.4 µM | TGI (HCC-2998 colon): 32.3 µM | GI50 (NCI-H23 lung): 16.2 µM | TGI (NCI-H23 lung): 30.4 µM | GI50 (HS 578T breast): 16.2 µM | TGI (HS 578T breast): 35.7 µM | GI50 (UACC-257 melanoma): 22.6 µM | TGI (UACC-257 melanoma): 39.4 µM

N#CC(C(=O)CCCC(=O)Nc1ccc(Cl)cc1Cl)c1ccccc1 (configuration not stated)
TGI (SF-268 CNS): > 100 µM | TGI (A549 NSCLC): > 100 µM | TGI (HCT-116 colon): > 100 µM | TGI (MOLT-4 leukemia): > 100 µM | TGI (HCC-2998 colon): > 100 µM | TGI (NCI-H23 lung): > 100 µM | TGI (UACC-257 melanoma): > 100 µM

CCOC(=O)c1cc(-c2ccc(-c3cc(C(=O)OCC)c(C#N)c(N)c3C#N)cc2)c(C#N)c(N)c1C#N
TGI (SF-268 CNS): > 100 µM | TGI (A549 NSCLC): > 100 µM | TGI (HCT-116 colon): > 100 µM | TGI (MOLT-4 leukemia): > 100 µM | TGI (HCC-2998 colon): > 100 µM | TGI (NCI-H23 lung): > 100 µM | TGI (UACC-257 melanoma): > 100 µM

CCOC(=O)/C(=C/c1cccc(Cl)c1)N(CC)CC
TGI (SF-268 CNS): > 100 µM | TGI (A549 NSCLC): > 100 µM | TGI (A498 renal): > 100 µM | TGI (HCT-116 colon): > 100 µM | TGI (MOLT-4 leukemia): > 100 µM | TGI (HCC-2998 colon): > 100 µM | TGI (NCI-H23 lung): > 100 µM | TGI (UACC-257 melanoma): > 100 µM

Cc1c(C(=O)O)n(C)c(=O)n(C)c1=O
TGI (SF-268 CNS): > 100 µM | TGI (A549 NSCLC): > 100 µM | TGI (A498 renal): > 100 µM | TGI (HCT-116 colon): > 100 µM | TGI (MOLT-4 leukemia): > 100 µM | TGI (HCC-2998 colon): > 100 µM | TGI (NCI-H23 lung): > 100 µM | TGI (UACC-257 melanoma): > 100 µM

CCOC(=O)C(Cc1ccc(N(CCCl)CCCl)cc1)NC(=O)C(Cc1ccccc1)NC=O (configuration not stated)
TGI (SF-268 CNS): 0.299 µM | TGI (A549 NSCLC): 0.727 µM | TGI (DU-145 prostate): 0.38 µM | TGI (A498 renal): 0.384 µM | TGI (HCT-116 colon): 0.535 µM | TGI (MOLT-4 leukemia): 0.161 µM | TGI (NCI-H23 lung): 0.399 µM | TGI (UACC-257 melanoma): 0.54 µM
